# Measured values reported in patent US7361785B2, “Compound protecting against ultraviolet rays” (Lead Chemical Co., Ltd., priority 2002, dated 2008).
# Assays:
# [1] = tested on: guinea pigs' skin; assay: Blocking effects against UV ray irradiated on guinea pigs' skin; assay type: in vivo, male Hartley guinea pigs; settings: for UV ray blocking effect score: total score for 2.5% and 5% ointments, 6 irradiated sites each scored 0-4, complete blocking = 24, UV 3000 Lux for 90 s, read 24 hours after irradiation
# Experimental: Each compound of the present invention and commercially available p-methoxy cinnamic acid-2-ethyl hexyl as a positive reference were mixed with an ointment base (Plastibase), and 2.5% (mass % of active ingredient) and 5% ointment were prepared for each. The belly area of male Hartley guinea pigs that were 6 to 10 weeks old was shaved, and then further close shaved using an electric shaver. The test animals were then anaesthetized by injecting pentobarbital sodium (30 mg/kg) in their abdominal cavity. Then, 100 mg of the base material, 2.5% ointment and the 5% ointment were respectively spread in 6 to 7 cm long/15 cm wide areas of the shaved belly area of the test animal starting from its head. 10 minutes after spreading, the skin was covered with a piece of felt in which 9 holes (3×3) with 1 cm diameter had been made. A UV ray (3000 Lux) was then irradiated for a 90 second period. 24 hours after the irradiation, the intensity of the red circular marks that had been produced were observed, and the blocking effect investigated. Note that, the evaluation of the UV ray blocking effect was carried out in accordance with the following evaluation criteria (score based on 5 level evaluation).
# In advance, 99 types of related compound were prepared using the test method described above as 10% ointments including the compounds of the present invention (the compounds expressed by formula I) and the compounds that are the active ingredient of the UV ray protection agent of the present invention (the compounds expressed by formula I′). A screening test was performed, and 9 compounds that 100% blocked the UV rays selected. Then, lower concentration ointments were prepared for these 9 compounds and an investigation was carried out to test the UV ray protection effect thereof. Note that, as a reference compound, the results for p-methoxy cinnamic acid ethyl hexyl that is used as the active ingredient in commercially sold UV ray protection agents are also shown.
# [2] = tested on: mice; assay: Acute toxicity resulting from single under skin injection in mice; assay type: in vivo, male ddY mice; settings: single under skin injection 1 g/kg; for Case of death: groups of five mice; for Case of death / Observed items: observed 1 week; for body weight of the mice following injection: weighed on days 1, 3, 6, 7
# Experimental: (§1) An investigation was carried out using 5 week old male ddY mice.
# (§2) Each compound (250 mg) was placed in suspension using the same amount of Tween-80, and then diluted with physiologic saline (5 mL) to form a 5% suspension. Then, supersonic treatment was performed to create the specimen. 0.2 mL/10 g (1 g/kg) of the specimen was injected per body weight under the skin of the back portion of each mouse in groups of five mice. The behavior of the mice was then observed for 1 week after injection while the mice were fed. The body weight of the mice was measured on the 1st, 3rd, 6th and 7th days. After one week, an abdominal section was performed, and changes in the various internal organs and abnormality of the injected area checked for.
# [3] = as above; assay type: in vivo, male ddY mice; settings: male, ddY, mouse, in vivo, subcutaneous, 1 g/kg; single under skin injection, mice
# Experimental: as §1, §2
Structure (SMILES),UV ray blocking effect score [1],body weight by the 7th day following injection [2],Case of death [2],Observed items [2],body weight of the mice following injection [2],LD50 at 1 week [3] [mg/kg],"UV ray protection effect (in words) ([1]; 2.5% and 5% ointments, comparison within Table 1)"
C/C=C/C(=O)Nc1ccccc1C(=O)O [CU-1008],20,–,–,–,–,–,–
"Cc1ccccc1OC(=O)c1ccc2ccccc2c1 [CU-2010, o-tolyl-2-naphthyl carboxylate]",21,–,–,–,–,–,–
COc1cccc(C(=O)Oc2ccccc2C)c1 [CU-2102],15,–,–,–,–,–,–
"Cc1ccc(OC(=O)c2ccc3ccccc3c2)cc1 [CU-5004, p-tolyl-2-naphthyl carboxylate]",20,recovered to its level at the time of the first injection,0/5,Weight reduction,decreased,≥ 1000,–
COc1cccc(C(=O)Oc2ccc(C)cc2)c1 [CU-5008],13,recovered to its level at the time of the first injection,0/5,Weight reduction,decreased,≥ 1000,–
"COc1ccc(C(=O)Oc2ccc(C)cc2)cc1 [CU-5009, p-tolyl anisate]",19,recovered to its level at the time of the first injection,0/5,Weight reduction,decreased,≥ 1000,–
O=C(Oc1cccc2ccccc12)c1ccccc1F [CU-9005],24,–,–,–,–,–,strongest UV ray protection effect
O=C(Oc1ccc2ccccc2c1)c1ccccc1F [CU-10005],7,–,0/5,No abnormalities,increased following injection in the same manner as the body weight of the mice in a reference group,≥ 1000,–
Cc1ccc([N+](=O)[O-])cc1OC(=O)C=Cc1ccccc1 [CU-11005],12,–,–,–,–,–,–
"CCCCC(CC)COC(=O)C=Cc1ccc(OC)cc1 (stereo not drawn) [p-Methoxy-cinnamic acid-2-ethyl hexyl, reference compound]",18,–,–,–,–,–,–
